Measured values: publication PMC6337475, “Optimization of Sequence, Display, and Mode of Operation of IgG-Binding Peptide Ligands to Develop Robust, High-Capacity Affinity Adsorbents That Afford High IgG Product Quality” (International Journal of Molecular Sciences, 2019)
Non-standard residues stand in square brackets, D forms with d. No end group written: not given here. Cit = NC(=O)NCCC[C@H](N)C(=O)O

Columns and labels:
[1] = test system: CHO host cell proteins (HCPs); assay: Host cell protein clearance (HCP ELISA) in IgG1 purification from CHO supernatant; design: species or system Chinese Hamster Ovary (CHO); details: for HCP LRV: elution 0.1 M Na-acetate pH 4.5, TREN-WB adsorbent
Procedure: (§1) Further, the chromatographic fractions were analyzed using a HCP ELISA kit and a Quant-IT Picogreen dsDNA assay kit to determine the levels of host cell proteins (HCPs) and DNA, respectively.
(§2) In this work, we have investigated the effect of pH of the elution buffer on the performance of HWRGWV-TREN-WB resin with a therapeutic monoclonal IgG1. Specifically, 0.1 M acetate buffer was used as a milder elution buffer (pH 4–5), while 0.1 M glycine HCl buffer was used for low pH elution (pH 2.5). The performance of the different buffers was evaluated in terms of HCP LRV in the eluted fraction, whose values are reported in Figure 5. The HCP clearance decreases at lower elution pH, which is however needed to ensure sufficient IgG yield. At pH 5, where a HCP LRV of 1.18 is obtained, only 75% of the bound IgG is eluted. […] Therefore, acetate buffer pH 4.5 was selected as elution buffer, as it offers the best combination of yield and purity.
The majority of CHO HCPs are acidic in nature and have an overall negative charge at the physiological conditions (PBS pH 7.4). Their non-specific binding to the positively charged ligand (the net charge of HWRGWV at pH 7 is +1.1) is likely of electrostatic nature. In order to lower the non-specific capture of HCPs, pre-elution wash conditions were optimized by exploring different compositions and pH values of the washing buffer. Specifically, the following conditions were utilized, 0.2 M sodium phosphate pH 6, 0.2 M sodium phosphate pH 7, PBS pH 7.4, 1 M NaCl in PBS at pH 7.4, and 0.1 M Tris HCl pH 9.
The host cell protein contents of the chromatographic fractions were determined using HCP ELISA kits from Cygnus Technologies (Southport, NC, USA). The high sensitivity protocol described by the manufacturer was used in the analysis. Briefly, the anti-CHO-coated microtiter wells were filled with 100 μL of standards and samples, and incubated on a rotator at 200 rpm for 1 h at room temperature. The wells were then washed three times with 300 μL washing buffer, and 100 μL of HRP-labeled anti-CHO antibody was added to each of the wells. After rinsing the wells, 100 μL of 3,3′,5,5′ tetramethyl benzidine (TMB) substrate solution was added to each well for 30 min at room temperature. The reaction was terminated by adding 100 μL of 0.5 M sulphuric acid. The amount of hydrolyzed substrate was measured by μQuant Microplate reader (BioTek Inc., Winooski, VT, USA) at 450 nm. A 4-parameter logistic fit was used to calculate the HCP (ng/mL) content in the chromatographic fractions. The HCP values determined in terms of ng/mL were converted into ng/mg of MAb to account for the dilution of fractions. The log reduction value (LRV) was determined as the log10 of the ratio of HCP in the load to the HCP in the elution fractions.

[2] = test system: human polyclonal IgG; assay: Batch adsorption isotherm (Langmuir fit); format: binding; details: peptide-TREN-WB resin, 0.1-12 mg/mL IgG in PBS pH 7.4, 2 h, room temperature, UV 280 nm
Procedure: The IgG-binding affinity of the ligand variants was initially measured via batch adsorption studies. Briefly, aliquots of peptide-TREN-WB resin were incubated with solutions of IgG in PBS in a range of concentration between 0.1 and 12 mg/mL; as the binding equilibrium was reached, the amount of IgG adsorbed on each resin aliquot was calculated based on the equilibrium concentration of IgG in solution, and the corresponding values were fitted to the Langmuir model: q=QmaxC/KD+C where in KD is the dissociation constant and Qmax the equilibrium binding capacity.
The adsorption of human polyclonal IgG by the HWRGWV-WB resins was measured at room temperature in a set of batch adsorption experiments. The resin was equilibrated with PBS, pH 7.4, and transferred into fritted tubes (50 µL of resin slurry per tube). Lyophilized IgG was dissolved in PBS, pH 7.4, at different concentrations ranging from 0.1 to 12 mg/mL. A volume of 1 mL of IgG solution was incubated with each of the resin aliquots for two hours, at room temperature, and under mild agitation. The supernatants were collected and quantified by UV-absorbance at 280 nm to determine the amount of IgG adsorbed by the resin and the corresponding equilibrium concentration of unbound IgG in solution, and the resulting data were fitted to a Langmuir isotherm.

[3] = test system: DNA; assay: DNA clearance (Quant-IT PicoGreen) in IgG1 purification from CHO supernatant; design: species or system Chinese Hamster Ovary (CHO); details: washing buffer PBS, pH 7.4; elution 0.1 M Na-acetate pH 4.5; TREN-WB adsorbent
Procedure: as §1
The chromatographic fractions were first diafiltered against 10 mM Tris–HCl pH 7.5, using Amicon® centrifugal filters (3000 MWCO Millipore, Bedford, MA, USA). The DNA content in the fractions was determined by pico green assay using Quant-IT Picogreen dsDNA assay kit from Thermo Fisher Scientific (Philadelphia, PA, USA). Quantification was done as per the manufacturer’s protocol.

[4] = test system: IgG; details: preliminary studies; cited from earlier work
From the text: In this work the peptide and peptide variants have been conjugated to Workbeads base resin at varying ligand densities ...

[5] = test system: Fc region of IgG; details: cited from earlier work
From the text: Several chromatographic and non-chromatographic techniques have been proposed for the purification of Mabs, fc fusion proteins and bispecifics including efforts towards identifying alternatives to Protein A-based chromatography. While being regarded as the standard for antibody purification owing to their high affinity and selectivity, these ligands present limitations, including high cost and the potential release of immunogenic fragments. An additional issue with Protein A concerns the presence of antibody aggregates in eluted fraction and their poor selectivity ...

[6] = test system: polyclonal human IgG (monomer and aggregates); assay: Aggregate removal from heat-treated polyclonal IgG, SEC; details: 1 mg/mL IgG incubated 60 °C 10 min; PBS wash; elution pH 4.5; SEC (TSKgel G3000SW)
Procedure: The ability of HWRGWVC-TREN-WB to remove aggregates was further tested by using a polyclonal IgG solution. The formation of aggregates was induced by incubating a 1 mg/mL IgG solution at 60 °C for 10 min. The IgG solution containing aggregates was loaded onto the HWRGWVC-TREN-WB resin, followed by washing with PBS and elution at pH 4.5.
Further, a feed sample containing monomeric and aggregated polyclonal IgG was produced by incubating a 1 mg/mL solution of human IgG at 60 °C for 10 min. The solution was loaded onto the HWRGWVC-TREN-WB resin, followed by washing with PBS and elution at pH 4.5. The collected fractions were analyzed by size exclusion chromatography (SEC) using a TSKgel G3000SW column to determine the ratio of monomeric vs. aggregated IgG in both flow-through and elution fractions.

[7] = test system: therapeutic monoclonal IgG1; assay: Purification of monoclonal IgG1 from CHO cell culture supernatant: yield, loss and purity; details: SDS-PAGE
Procedure: To evaluate the effect of the spacer arm on the purity of the eluted product, the HWRGWV-WB adsorbents constructed with different spacer arms were utilized to purify a monoclonal IgG1 from a CHO cell culture supernatant. […] The collected fractions were analyzed by size exclusion chromatography to measure product yield (Table 2), and by SDS-PAGE to determine the overall product purity by densitometric analysis (Figure 4).
as §1, §2

Substance	HCP LRV ([1]; washing buffer PBS, pH 7.4)	Qmax (equilibrium binding capacity) [2] [mg·IgG/mL Adsorbent]	DNA LRV [3]	IgG binding capacity on agarose WorkBeads ACT [4]	HCP LRV ([1]; washing buffer 0.1 M Tris HCl, pH 9)	HCP removal during washing ([1]; washing buffer 0.2 M sodium phosphate at either pH 6 or 7)	HCP LRV ([1]; washing buffer 1 M NaCl in PBS, pH 7.4)	binding region on IgG [5]	selective capture of monomeric IgG vs aggregates [6]	loss of IgG in washing buffer ([7]; wash 0.1 M Tris HCl, pH 9)	loss of IgG in washing buffer ([7]; wash 1 M NaCl in PBS pH 7.4)
Ac-HWRGWV [N-terminally acetylated variant of HWRGWV, tested as TREN-WB resin]	1.38	72	~4	–	–	–	–	–	–	–	–
HWRGWV [tested as TREN-WB resin, coupled as HWRGWVC]	1.04	85	~4	higher IgG binding capacity as compared to polymethcarylate base resin	1.39	did not afford any HCP removal during washing	1.22	binds the Fc region of IgG	bind only monomeric IgG	–	–
HWRGWVC [peptide HWRGWV with C-terminal cysteine, conjugated through its thiol group to iodoacetyl-WB resin]	–	–	–	–	–	–	–	–	–	not observed	minor loss of IgG in the washing buffer
HW[Cit]GWV	1.58	49	~4	–	–	–	–	–	–	–	–
